Assay results reported in US20210308034A1, “PREBIOTIC COMPOSITIONS AND METHODS FOR MAINTAINING A HEALTHY SKIN MICROBIOTA” (KIMBERLY-CLARK WORLDWIDE, INC., priority 2018, published 2021).
Where a SMILES comes first, the peptide text is derived from it.

Tests used:
Assay type in all cases: cell-based
[1] = tested on: commensal and pathogenic skin bacteria; assay: Carbohydrate Screening Test Method, all bacteria codes tested; conditions: ten bacteria codes of Table 1
Text: (§1) After creating desired ratios of various commensal skin bacteria in a healthy skin microbiome, 188 different carbohydrate sources were screened as the next step in determining potential prospects for skin microbiota balancing agents. The screening process was set up to determine which carbohydrate sources promoted commensal and/or pathogenic bacteria as well as to obtain individual and combinations of carbohydrate sources that could serve as microbiota balancing agents that can support or maintain the healthy proportions of commensal skin bacteria of Corynebacterium, Staphylococcus, and Micrococcus. The screening was conducted utilizing Biolog phenotype microarray plates (Hayward, Calif.). Table 1 provides a coded list of the commensal and pathogenic skin bacteria that the carbohydrates were screened against.
(§2) The Bacteria Codes B, D, E, I, and J are commensal bacteria and are shaded in Table 2 for references purposes. The bacteria codes were each placed in a carbon microarray plate and screened through the Carbohydrate Screening Test Method, as described in the Test Methods section herein. If a particular bacteria code utilized a specific carbohydrate source as described in the Carbohydrate Screening Test Method, then the corresponding cell in Table 2 was marked with a Y (short for “Yes”).
(§3) The study employed 10 representative skin bacteria; Staphylococcus epidermidis ATCC 14990, Staphylococcus epidermidis M23864:W2, Staphylococcus aureus ATCC 6538, Staphylococcus aureus ATCC 25904 (Newman), Pseudomonas aeruginosa ATCC 9027, Micrococcus luteus ATCC […], Micrococcus luteus SK58, Klebsiella pneumoniae ATCC BAA-2146, Corynebacterium amycolatum SK46, and Corynebacterium minutissimum ATCC 23348. Cultures were started from freezer bead stocks by placing a single bead into 20 mL of tryptic soy broth (TSB) for all organisms except C. amycolatum SK46 and C. minutissimum ATCC 23348, which were placed into brain heart infusion (BHI) broth. Cultures were grown for about 24 hr at 37° C. except M. luteus ATCC 49732 and M. luteus SK58, which were grown at 30° C. A passage of the culture was made using a sterile swab and streaked onto two M9*2 agar plates to prepare the incubated culture for the phenotype microarray pate according to Table 4. Plates were incubated for about 24 hr at 37° C. except for M. luteus ATCC 49732 and M. luteus SK58, which were incubated at 30° C. for 24 hr.
(§4) All cultures were harvested and washed before inoculation into the carbon microarray plate (BiOLOG, Hayward Calif.), with Biolog Plates PM1 and PM2 each having a source definition of Carbon. The bacteria on the M9*2 agar was suspended via agitation with an inoculating loop in 1 mL of M9*1 media for collection in a 1.7 mL micro centrifuge tube, as noted in Table 4. The bacteria was suspended again in M9*1 media, agitated, and collected into the same 1.7 mL microcentrifuge tube used in the previous step. The tube was centrifuged for 5 minutes at 4,000×G, supernatant decanted, the pellet was resuspended in 1 mL of M9*1 media, and vortex. This washing process was repeated for a total of 4 times.
A tenfold dilution in M9*1 media was performed using 1 mL of the washed bacterial culture.

[2] = tested on: Micrococcus luteus (SK58); assay: Carbohydrate Screening Test Method (Biolog phenotype microarray), Bacteria Code E; conditions: Commensal; carbon microarray plate, OD 600 nm, 36 hr, 33° C.; positive = more than 0.05 OD units above zero; blank cell = not utilized
Text: as §1, §2
(§5) To do so, the respective microarray data for the 79 carbohydrate sources was run through the GrowthRates 2.1 program to obtain growth parameters, such as growth rates and maximum yield data as described by the Belingham Research Institute, Hall, B. G., H. Acar and M. Barlow. 2014 Growth Rates Made Easy. Mol. Biol. Evol. 31:232-238 doi:10.1093/molbev/mst197. The max yield parameters generated were utilized to calculate ratios of tested commensal bacteria. The ratios calculated were compared back to the desired ratios identified above (Corynebacterium to Staphylococcus of 1.3, Corynebacterium to Micrococcus of 1.4, and Staphylococcus to Micrococcus of 1.1).
(§6) As an example of this methodology used to calculate the commensal bacteria ratios and the difference between the calculated ratios and the desired ratios, an example code from Table 3 will be described. […] The max yields were then used to calculate ratios the bacteria would reach in a co-culture.

[3] = tested on: Corynebacterium jeikum (ATCC 33033); assay: Carbohydrate Screening Test Method (Biolog phenotype microarray), Bacteria Code B; conditions: Commensal; carbon microarray plate, OD 600 nm, 36 hr, 33° C.; positive = more than 0.05 OD units above zero; blank cell = not utilized
Description: as §1, with “The” for “After creating desired ratios of various commensal skin bacteria in a healthy skin microbiome, 188 different carbohydrate sources were screened as the next step in determining potential prospects for skin microbiota balancing agents. The”
as §2
as §5, with “2014 Growth Rates Made Easy.” left out, “31:232-238 doi:10.1093/molbev/mst197.” left out
as §6
A passage of the culture was made using a sterile swab and streaked onto two M9*2 agar plates to prepare the incubated culture for the phenotype microarray pate according to Table 4.
All cultures were harvested and washed before inoculation into the carbon microarray plate (BiOLOG, Hayward Calif.), with Biolog Plates PM1 and PM2 each having a source definition of Carbon. The bacteria on the M9*2 agar was suspended via agitation with an inoculating loop in 1 mL of M9*1 media for collection in a 1.7 mL micro centrifuge tube, as noted in Table 4.

[4] = tested on: Klebsiella pneumoniae (ATCC BAA-2146); conditions: Pathogenic; carbon microarray plate, OD 600 nm, 36 hr, 33° C.; positive = more than 0.05 OD units above zero; blank cell = not utilized
Text: as §1
Table 2 provides the results of screening various carbohydrate sources against the commensal and pathogenic bacteria codes listed in Table 1. The Bacteria Codes B, D, E, I, and J are commensal bacteria and are shaded in Table 2 for references purposes. The bacteria codes were each placed in a carbon microarray plate and screened through the Carbohydrate Screening Test Method, as described in the Test Methods section herein. If a particular bacteria code utilized a specific carbohydrate source as described in the Carbohydrate Screening Test Method, then the corresponding cell in Table 2 was marked with a Y (short for “Yes”). […] Many of the carbohydrate sources were utilized by both commensal and pathogenic bacteria, and as such, would not provide an advantage for selective growth of the commensal bacteria. However, some of the carbohydrate sources were only used by commensal bacteria and were identified for further testing as described herein.
as §3, §4
A tenfold dilution in M9*1 media was performed using 1 mL of the washed bacterial culture. Of the tenfold dilution 200 μL was placed in an untreated 96-well plate (Falcon, Pasadena Tx.) for an initial optical density (OD) reading at a wavelength of 600 nm. The OD was used to correlate to colony forming units (CFU) per milliliter by using linear regression lines for each organism. […]

[5] = tested on: Pseudomonas aeruginosa (ATCC 9027); conditions: Pathogenic; carbon microarray plate, OD 600 nm, 36 hr, 33° C.; positive = more than 0.05 OD units above zero; blank cell = not utilized
Text: as §1, §2, §3, §4
A tenfold dilution in M9*1 media was performed using 1 mL of the washed bacterial culture. Of the tenfold dilution 200 μL was placed in an untreated 96-well plate (Falcon, Pasadena Tx.) for an initial optical density (OD) reading at a wavelength of 600 nm. The OD was used to correlate to colony forming units (CFU) per milliliter by using linear regression lines for each organism.

[6] = tested on: Staphylococcus epidermidis (M23864:W2); assay: Carbohydrate Screening Test Method (Biolog phenotype microarray), Bacteria Code J; conditions: Commensal; carbon microarray plate, OD 600 nm, 36 hr, 33° C.; positive = more than 0.05 OD units above zero; blank cell = not utilized
Text: as §1, §2, §5, §6

Molecule | utilization by the bacteria codes tested [1] | Carbohydrate Screening Results, Bacteria Code J [6] | also measured
O=CC[C@H](O)[C@H](O)CO [2-Deoxy-D-Ribose] | not utilized by any of the bacteria |  | 
O=C(O)Cc1ccc(O)cc1 [p-hydroxy phenyl acetic acid] | not utilized by any of the bacteria |  | 
O=C(O)[C@@H](O)[C@H](O)C(=O)O [D-Tartaric Acid] | not utilized by any of the bacteria |  | 
O=C(O)[C@H](O)[C@@H](O)[C@H](O)[C@H](O)CO [D-Gluconic Acid] |  | Y | Carbohydrate Screening Results, Bacteria Code E [2]: Y; Carbohydrate Screening Results, Bacteria Code B [3]: Y; Carbohydrate Screening Results, Bacteria Code C [4]: Y; Carbohydrate Screening Results, Bacteria Code F [5]: Y
CCC(C)N (stereo not shown) [Sec-Butylamine] | not utilized by any of the bacteria |  | 
N[C@@H](Cc1ccccc1)C(=O)O [L-Phenylalanine] | not utilized by any of the bacteria |  | 
NCCCC[C@H](N)C(=O)O [L-Lysine] | not utilized by any of the bacteria |  | 
OC[C@H]1O[C@@H]2O[C@H]3[C@H](O)[C@@H](O)[C@@H](O[C@H]4[C@H](O)[C@@H](O)[C@@H](O[C@H]5[C@H](O)[C@@H](O)[C@@H](O[C@H]6[C@H](O)[C@@H](O)[C@@H](O[C@H]7[C@H](O)[C@@H](O)[C@@H](O[C@H]8[C@H](O)[C@@H](O)[C@@H](O[C@H]9[C@H](O)[C@@H](O)[C@@H](O[C@H]1[C@H](O)[C@H]2O)O[C@@H]9CO)O[C@@H]8CO)O[C@@H]7CO)O[C@@H]6CO)O[C@@H]5CO)O[C@@H]4CO)O[C@@H]3CO [γ-Cyclodextrin] |  | Y | 
O=C[C@H](O)[C@@H](O)[C@@H](O)[C@H](O)CO [D-Galactose] |  | Y | Carbohydrate Screening Results, Bacteria Code E [2]: Y; Carbohydrate Screening Results, Bacteria Code B [3]: Y; Carbohydrate Screening Results, Bacteria Code C [4]: Y; Carbohydrate Screening Results, Bacteria Code F [5]: Y
NCC(=O)N1CCC[C@H]1C(=O)O [Glycyl-L-Proline] (H-Gly-Pro-OH) | not utilized by any of the bacteria |  | 
OC[C@@H](O)[C@H](O)[C@@H](O)CO [Xylitol] | not utilized by any of the bacteria |  | 
N[C@H](CO)C(=O)O [D-Serine] | not utilized by any of the bacteria |  | 
NCC(=O)O [Glycine] | not utilized by any of the bacteria |  | 
Glycogen | not utilized by any of the bacteria |  | 
C[N+](C)(C)CC(O)CC(=O)[O-] (racemic) [D,L-Carnitine] |  | Y | Carbohydrate Screening Results, Bacteria Code F [5]: Y
O=C(CO)[C@@H](O)[C@H](O)[C@@H](O)C(=O)O [5-Keto-D-Gluconic Acid] | not utilized by any of the bacteria |  | 
Nc1ncnc2c1ncn2C1CC(O)C(CO)O1 (stereo not shown) [2-Deoxy Adenosine] | not utilized by any of the bacteria |  | 

Molecule | utilization by the bacteria codes tested [1] | Carbohydrate Screening Results, Bacteria Code J [6] | also measured
C[C@@H](O)[C@H](O)[C@H](O)[C@@H](O)C=O [D-Fucose] | not utilized by any of the bacteria |  | 
OCC(O)CO [Glycerol] |  | Y | Carbohydrate Screening Results, Bacteria Code B [3]: Y; Carbohydrate Screening Results, Bacteria Code C [4]: Y
C/C=C/C=C/C(=O)O [Sorbic Acid] | not utilized by any of the bacteria |  | 
O=C(O)CCCO [y-Hydroxy Butyric Acid] | not utilized by any of the bacteria |  | 
Mannan |  | Y | 
OC[C@H]1O[C@@H](O)[C@H](O)[C@H](O)[C@@H]1O [β-D-Allose] | not utilized by any of the bacteria |  | 
CCCC(=O)C(=O)O [α-Keto-Valeric Acid] | not utilized by any of the bacteria |  | 
Tween 20 | not utilized by any of the bacteria |  | 
CC(=O)N[C@H]1[C@H]([C@H](O)[C@H](O)CO)OC(O)(C(=O)O)C[C@@H]1O (stereo partly shown) [N-Acetyl-Neuraminic Acid] | not utilized by any of the bacteria |  | 
CC(C)[C@H](N)C(=O)O [L-Valine] | not utilized by any of the bacteria |  | 
Laminarin | not utilized by any of the bacteria |  | 
O=P(O)(O)OCC(O)CO (racemic) [D,L-α-Glycerol-Phosphate] |  | Y | Carbohydrate Screening Results, Bacteria Code E [2]: Y; Carbohydrate Screening Results, Bacteria Code B [3]: Y
NCCCCC(=O)O [δ-Amino Valeric Acid] |  | Y | 
NCC(O)c1ccc(O)cc1 [D.L-Octopamine] |  | Y | Carbohydrate Screening Results, Bacteria Code C [4]: Y; Carbohydrate Screening Results, Bacteria Code F [5]: Y
Dextrin |  | Y | Carbohydrate Screening Results, Bacteria Code C [4]: Y
CC(=O)N[C@@H](CO)[C@@H](O)[C@H](O)[C@H](O)CO [N-Acetyl-D-Glucosaminitol] |  | Y | 
